No end group written: not given here.
Tests used:
Nav1.8 = Nav1.8 (Homo sapiens, UniProt Q9Y5Y9); type: biochemical
[1] = test system: Wild-type (WT) Tetrahymena cells; assay: Fluorescent toxin labeling of fixed wild-type control Tetrahymena cells; type: binding, Tetrahymena thermophila; conditions: 10 nM, 30 minutes at RT
Kv1.3 [2] = target: T1, Kv1.3 (Homo sapiens, UniProt P22001); assay: Fluorescent toxin labeling of fixed Kv1.3 expressing Tetrahymena cells (confocal microscopy); type: binding; conditions: 10 nM, 30 minutes at RT
T1 construct: expressed in transfected cells; host or cells: Tetrahymena thermophila (transformed, CdCl2-induced, paraformaldehyde-fixed)

Kv1.3 [3] = target: T1, Kv1.3; assay: Competition of ShK-TAMRA labeling of Kv1.3 expressing cells by non-labeled toxins; type: binding; conditions: 100 nM (saturating) toxin co-incubated with 10 nM ShK-TAMRA

Chain of Nav1.8 (Q9Y5Y9 whole entry): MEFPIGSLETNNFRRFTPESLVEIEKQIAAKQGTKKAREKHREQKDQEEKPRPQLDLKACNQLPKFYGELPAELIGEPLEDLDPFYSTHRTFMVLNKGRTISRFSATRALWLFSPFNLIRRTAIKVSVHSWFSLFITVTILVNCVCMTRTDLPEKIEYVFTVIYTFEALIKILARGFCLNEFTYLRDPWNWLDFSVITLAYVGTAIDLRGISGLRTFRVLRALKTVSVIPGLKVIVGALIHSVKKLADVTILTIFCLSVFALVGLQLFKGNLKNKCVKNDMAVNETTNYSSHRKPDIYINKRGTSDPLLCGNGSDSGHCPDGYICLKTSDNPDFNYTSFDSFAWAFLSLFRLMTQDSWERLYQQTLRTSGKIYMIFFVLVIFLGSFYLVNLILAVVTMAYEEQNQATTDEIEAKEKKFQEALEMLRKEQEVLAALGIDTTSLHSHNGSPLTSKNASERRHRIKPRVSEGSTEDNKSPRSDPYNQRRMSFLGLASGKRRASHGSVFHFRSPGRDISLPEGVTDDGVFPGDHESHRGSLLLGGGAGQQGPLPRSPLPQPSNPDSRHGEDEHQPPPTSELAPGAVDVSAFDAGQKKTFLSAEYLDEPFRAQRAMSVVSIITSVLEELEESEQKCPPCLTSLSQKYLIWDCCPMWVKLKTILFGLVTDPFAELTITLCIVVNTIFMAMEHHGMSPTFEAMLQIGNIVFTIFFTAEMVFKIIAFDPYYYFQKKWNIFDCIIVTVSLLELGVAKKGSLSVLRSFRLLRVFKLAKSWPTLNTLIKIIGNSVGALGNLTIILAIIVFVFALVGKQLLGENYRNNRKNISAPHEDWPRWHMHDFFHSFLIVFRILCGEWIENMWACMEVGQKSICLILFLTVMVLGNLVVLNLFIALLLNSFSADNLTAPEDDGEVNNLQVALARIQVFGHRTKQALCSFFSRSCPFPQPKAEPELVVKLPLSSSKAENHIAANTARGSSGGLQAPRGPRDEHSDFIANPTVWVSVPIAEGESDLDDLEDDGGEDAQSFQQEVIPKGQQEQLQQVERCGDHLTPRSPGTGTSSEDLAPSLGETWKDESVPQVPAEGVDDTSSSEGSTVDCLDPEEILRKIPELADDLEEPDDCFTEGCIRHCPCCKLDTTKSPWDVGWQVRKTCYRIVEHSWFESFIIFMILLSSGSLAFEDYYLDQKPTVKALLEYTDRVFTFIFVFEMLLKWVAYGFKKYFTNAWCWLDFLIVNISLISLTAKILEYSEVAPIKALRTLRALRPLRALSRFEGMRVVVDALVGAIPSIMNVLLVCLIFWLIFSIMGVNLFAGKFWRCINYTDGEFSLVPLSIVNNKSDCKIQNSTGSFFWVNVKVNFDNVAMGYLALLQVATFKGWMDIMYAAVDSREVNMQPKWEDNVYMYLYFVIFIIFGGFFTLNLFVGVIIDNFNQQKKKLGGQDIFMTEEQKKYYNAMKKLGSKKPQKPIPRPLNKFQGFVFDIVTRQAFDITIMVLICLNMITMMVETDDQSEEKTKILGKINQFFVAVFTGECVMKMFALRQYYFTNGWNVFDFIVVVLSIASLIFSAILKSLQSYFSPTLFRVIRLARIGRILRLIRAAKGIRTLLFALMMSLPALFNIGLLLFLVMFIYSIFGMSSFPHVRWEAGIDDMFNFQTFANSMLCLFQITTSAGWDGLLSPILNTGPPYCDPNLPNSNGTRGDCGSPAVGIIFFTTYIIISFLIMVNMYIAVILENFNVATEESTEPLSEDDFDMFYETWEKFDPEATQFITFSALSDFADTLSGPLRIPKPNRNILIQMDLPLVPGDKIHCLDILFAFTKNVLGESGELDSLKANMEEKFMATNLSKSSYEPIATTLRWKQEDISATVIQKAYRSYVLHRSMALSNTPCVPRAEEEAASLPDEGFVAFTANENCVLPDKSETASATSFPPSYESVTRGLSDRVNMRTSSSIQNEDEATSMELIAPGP
T1 sequence (P22001 whole entry): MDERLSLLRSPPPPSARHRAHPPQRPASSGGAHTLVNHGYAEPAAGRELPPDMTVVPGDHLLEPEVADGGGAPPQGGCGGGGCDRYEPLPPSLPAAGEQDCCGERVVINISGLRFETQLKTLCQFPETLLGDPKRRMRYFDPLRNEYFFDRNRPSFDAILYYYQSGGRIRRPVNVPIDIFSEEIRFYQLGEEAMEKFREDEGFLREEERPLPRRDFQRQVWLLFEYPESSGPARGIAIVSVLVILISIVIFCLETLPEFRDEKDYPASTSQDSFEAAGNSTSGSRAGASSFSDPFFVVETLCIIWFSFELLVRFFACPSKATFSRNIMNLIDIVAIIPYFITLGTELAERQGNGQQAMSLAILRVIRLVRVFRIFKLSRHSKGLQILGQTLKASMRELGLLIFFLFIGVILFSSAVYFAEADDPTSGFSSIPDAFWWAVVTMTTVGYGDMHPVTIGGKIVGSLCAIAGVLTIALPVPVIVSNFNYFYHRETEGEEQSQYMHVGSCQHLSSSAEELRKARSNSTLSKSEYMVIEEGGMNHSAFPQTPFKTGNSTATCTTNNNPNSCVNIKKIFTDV

Cc1c[nH]c(C)c1C(=O)O[C@@H](C)C1=CC[C@@]23OCCN(C)C[C@@]12C[C@@H](O)[C@]12O[C@]4(O)CC[C@@]1(C)[C@H](CC=C32)C4 [BTX, batrachatoxin]
channel activity following addition of activator (Nav1.8; Nav1.8 proteoliposomes, 10× NaCl chemical gradient, 0 mV holding potential, no conductance before addition): channel activity was detected
conductances (Nav1.8; after addition of BTX, 10× NaCl chemical gradient, 0 mV holding potential): 2-3 pA

NC1=N[C@H](O)[C@H]2[C@H]3O[C@]4(O)O[C@@H]([C@@H](O)[C@@]2(N1)[C@@H]4O)[C@]3(O)CO [Tetrodotoxin]
channel activity following addition of blocker (Nav1.8): Activity was abolished

Agitoxin-2-TAMRA [AgTX-2-TAMRA]
labeling of WT cells [1]: No labeling
binding to Kv1.3 expressing cells (cell surface labeling) (Kv1.3 [2]): bound to Kv1.3 expressing cells

Iberiotoxin (QFTDVDCSVSKECWSVCKDLFGVDRGKCMGKKCRCYQ; ends and bridges not checked; cysteine pairing not given here; UniProt P24663 1-37, looked up) [IbTX]
competition with ShK-TAMRA binding (Kv1.3 [3]): does not interfere with ShK-TAMRA binding

Margatoxin (TIINVKCTSPKQCLPPCKAQFGQSAGAKCMNGKCKCYPH; ends and bridges not checked; cysteine pairing not given here; UniProt P40755 1-39, looked up) [MgTX]
competition with ShK-TAMRA binding (Kv1.3 [3]): competitive

ShK-TAMRA
labeling of WT cells [1]: No labeling
binding to Kv1.3 expressing cells (cell surface labeling) (Kv1.3 [2]): bound to Kv1.3 expressing cells

— patent publication US20170089921A1, “EXPRESSION OF VOLTAGE-GATED ION CHANNELS IN CILIATES” (priority 2014, published 2017)
